One series has as its target T1, GLP-1R (Homo sapiens, UniProt P43220).
T1 construct: expressed in transfected cells; host or cells: CHO-K1
As to the kind of experiment: Determination of GLP-1 activity: cAMP chemiluminescence (RLU) in CHO-K1 cell line stably expressing GLP-1R. It is filed as cell-based. The note with it: read-out: GLP-1 activity [EC50 (pmol)]. The procedure: (§1) GLP-1R, under the stimulation of its specific agonist, can activate the intracellular adenylate cyclase pathway, and increase the level of cAMP, finally leading to the generation and release of insulin. The stimulation of the cell lines stably transfected with GLP-1R by the agonist to be tested can lead to rapid increase in the intracellular cAMP level, and the relative light units (RLUs) after stimulating the cells at each dose are determined by chemiluminescence method to calculate the EC50 of the agonist. This method for determining activity is commonly used for GLP-1 receptor agonist activity analysis at home and abroad.
CHO-K1 cell line stably expressing GLP-1R was stimulated with the agonist at different concentrations. The EC50 value of the agonist was calculated by determining the relative light units after stimulating the cells at each dose.

The target in a further series is T2, GLP-2R (Homo sapiens, UniProt O95838).
T2 construct: expressed in transfected cells; host or cells: CHO-K1
T2 sequence (O95838 1-553): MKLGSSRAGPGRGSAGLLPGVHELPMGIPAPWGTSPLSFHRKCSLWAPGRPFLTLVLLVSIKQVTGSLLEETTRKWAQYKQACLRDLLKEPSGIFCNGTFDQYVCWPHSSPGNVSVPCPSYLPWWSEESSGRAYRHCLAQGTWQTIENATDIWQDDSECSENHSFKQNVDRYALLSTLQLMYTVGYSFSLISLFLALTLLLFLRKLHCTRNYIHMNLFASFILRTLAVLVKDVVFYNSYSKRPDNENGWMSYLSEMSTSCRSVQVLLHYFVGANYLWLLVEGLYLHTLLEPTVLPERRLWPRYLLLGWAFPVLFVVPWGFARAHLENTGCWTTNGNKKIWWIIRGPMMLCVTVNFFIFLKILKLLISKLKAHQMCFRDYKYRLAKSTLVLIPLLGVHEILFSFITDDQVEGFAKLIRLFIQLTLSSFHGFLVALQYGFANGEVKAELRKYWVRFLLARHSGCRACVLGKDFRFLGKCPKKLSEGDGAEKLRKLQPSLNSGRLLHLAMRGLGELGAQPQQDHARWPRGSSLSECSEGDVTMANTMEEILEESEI
In words: Determination of GLP-2 activity: cAMP chemiluminescence (RLU) in CHO-K1 cell line stably expressing GLP-2R. The note with it: read-out: GLP-2 activity [EC50 (nmol)]. It counts as cell-based. The procedure:
as §1, with “GLP-2R, under” for “GLP-1R, under”, “for GLP-2” for “for GLP-1”
CHO-K1 cell line stably expressing GLP-2R was stimulated with the agonist at different concentrations. The EC50 value of the agonist was calculated by determining the relative light units after stimulating the cells at each dose.

The nature of series [1]: Preliminary determination of pharmacokinetic properties in cynomolgus monkeys. It counts as in vivo. As to conditions: cynomolgus monkey; male cynomolgus monkeys; subcutaneous (SC) 0.1 mg/kg; plasma, LC-MS. The procedure:
The test animals were cynomolgus monkeys, two male cynomolgus monkeys in each compound group, and the drug was subcutaneously administered at 0.1 mg/kg. The blood was collected intravenously before (0 h) the administration, and 1 h, 2 h, 3 h, 4 h, 8 h, 12 h, 18 h, 24 h, 48 h, 96 h, 144 h, and 168 h after the administration of the compounds, and then centrifuged to isolate plasma samples.

By EC50 is commonly meant the concentration giving half of the maximal effect. Broadly, the half-life is the time in which the quantity being followed falls by half.

Starred links: 1 amine or outer side, 2 acyl side, 3 side chain; linkers in the order of their positions; H or OH if unused. Non-standard residues stand in square brackets, D forms with d. Residues, ends and D or L forms follow the SMILES beside them. Groups on a side chain read outwards from the residue. *: point of attachment. C18 diacid = O=C(O)CCCCCCCCCCCCCCCCC(=O)*; γGlu = O=C(O)[C@H](CCC(=O)[*:2])N[*:1]; AEEEA = NCCOCCOCCOCC(=O)O; Aib = CC(C)(N)C(=O)O

T1 sequence (P43220 24-463, species assumed): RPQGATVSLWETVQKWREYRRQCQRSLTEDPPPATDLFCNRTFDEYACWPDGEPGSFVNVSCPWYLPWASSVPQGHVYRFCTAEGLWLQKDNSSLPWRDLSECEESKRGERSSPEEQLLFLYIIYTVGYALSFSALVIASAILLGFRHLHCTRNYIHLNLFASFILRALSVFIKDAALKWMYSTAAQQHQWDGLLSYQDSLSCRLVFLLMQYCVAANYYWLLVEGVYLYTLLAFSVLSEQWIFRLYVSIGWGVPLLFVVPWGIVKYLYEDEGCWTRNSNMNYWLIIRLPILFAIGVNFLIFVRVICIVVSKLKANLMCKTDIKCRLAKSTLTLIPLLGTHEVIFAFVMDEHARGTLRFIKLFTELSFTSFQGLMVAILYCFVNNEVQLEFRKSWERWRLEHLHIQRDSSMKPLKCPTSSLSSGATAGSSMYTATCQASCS

`CC[C@H](C)[C@H](NC(=O)[C@H](Cc1ccccc1)NC(=O)[C@H](CC(=O)O)NC(=O)[C@H](CCCNC(=N)N)NC(=O)[C@H](C)NC(=O)[C@H](C)NC(=O)[C@H](CCC(N)=O)NC(=O)[C@H](CCCCNC(=O)CC[C@H](NC(=O)CCCCCCCCCCCCCCCCC(=O)O)C(=O)O)NC(=O)[C@H](CC(=O)O)NC(=O)[C@H](CC(C)C)NC(=O)[C@@H](NC(=O)[C@@H](NC(=O)[C@H](C)NC(=O)[C@H](CC(C)C)NC(=O)[C@H](CCC(=O)O)NC(=O)[C@H](CO)NC(=O)[C@@H](NC(=O)[C@H](Cc1ccccc1)NC(=O)[C@H](CO)NC(=O)CNC(=O)[C@H](CCC(=O)O)NC(=O)C(C)(C)NC(=O)[C@@H](N)Cc1c[nH]cn1)[C@@H](C)O)[C@@H](C)O)[C@@H](C)CC)C(=O)N[C@@H](C)C(=O)N[C@@H](Cc1c[nH]c2ccccc12)C(=O)N[C@@H](CC(C)C)C(=O)N[C@H](C(=O)N[C@@H](CCC(N)=O)C(=O)N[C@@H](Cc1c[nH]cn1)C(=O)N[C@@H](CCCCN)C(=O)N[C@H](C(=O)N[C@H](C(=O)N[C@@H](CC(=O)O)C(N)=O)[C@@H](C)O)[C@@H](C)CC)[C@@H](C)CC` [Compound 1, His-Aib-Glu-Gly-Ser-Phe-Thr-Ser-Glu-Leu-Ala-Thr-Ile-Leu-Asp-Lys(γGlu-octadecanedioic acid-Gln-Ala-Ala-Arg-Asp-Phe-Ile-Ala-Trp-Leu-Ile-Gln-His-Lys-Ile-Thr-Asp-NH2] (H-H[Aib]EGSFTSELATILDK([γGlu-C18 diacid])QAARDFIAWLIQHKITD-NH2): the EC50 at GLP-1R was determined as 0.0947 nM; on GLP-2R, 6.04 nM.
In series [1], `CC[C@H](C)[C@H](NC(=O)[C@H](Cc1ccccc1)NC(=O)[C@H](CC(=O)O)NC(=O)[C@H](CCCNC(=N)N)NC(=O)[C@H](C)NC(=O)[C@H](C)NC(=O)[C@H](CCC(N)=O)NC(=O)[C@H](CCCCNC(=O)COCCOCCOCCNC(=O)CC[C@H](NC(=O)CCCCCCCCCCCCCCCCC(=O)O)C(=O)O)NC(=O)[C@H](CC(=O)O)NC(=O)[C@H](CC(C)C)NC(=O)[C@@H](NC(=O)[C@@H](NC(=O)[C@H](C)NC(=O)[C@H](CC(C)C)NC(=O)[C@H](CCC(=O)O)NC(=O)[C@H](CO)NC(=O)[C@@H](NC(=O)[C@H](Cc1ccccc1)NC(=O)[C@H](CO)NC(=O)CNC(=O)[C@H](CCC(=O)O)NC(=O)C(C)(C)NC(=O)[C@@H](N)Cc1c[nH]cn1)[C@@H](C)O)[C@@H](C)O)[C@@H](C)CC)C(=O)N[C@@H](C)C(=O)N[C@@H](Cc1c[nH]c2ccccc12)C(=O)N[C@@H](CC(C)C)C(=O)N[C@H](C(=O)N[C@@H](CCC(N)=O)C(=O)N[C@@H](Cc1c[nH]cn1)C(=O)N[C@@H](CCCCN)C(=O)N[C@H](C(=O)N[C@H](C(=O)N[C@@H](CC(=O)O)C(N)=O)[C@@H](C)O)[C@@H](C)CC)[C@@H](C)CC` [Compound 4, His-Aib-Glu-Gly-Ser-Phe-Thr-Ser-Glu-Leu-Ala-Thr-Ile-Leu-Asp-Lys(PEG3CH2CO-γGlu-octadecanedioic acid)-Gln-Ala-Ala-Arg-Asp-Phe-Ile-Ala-Trp-Leu-Ile-Gln-His-Lys-Ile-Thr-Asp-NH2] (H-H[Aib]EGSFTSELATILDK([AEEEA-γGlu-C18 diacid])QAARDFIAWLIQHKITD-NH2; N-terminus assumed) showed a half-life of 59.2 h.

For the origin of these results see patent publication US20250154226A1, “LONG-ACTING GLP-1/GLP-2 DUAL AGONIST COMPOUND” (CHENGDU AODA BIOTECHNOLOGY CO., LTD, priority 2022, published 2025).
